Patent US20240116994A1, “Peptides And Use Thereof For Diagnosing And Treating Antiphospholipid Syndrome” (UNIVERSITE DE GENEVE, priority 2021, published 2024)
Where no end group is shown, it is not given here. The star is where a group is joined. Biotin = O=C1N[C@H]2[C@H](CS[C@H]2CCCCC(=O)*)N1

How the values were obtained:
[1] = system: binding of aPL to IIa-8.0-biot-2x; experiment: Inhibition experiments: remaining reactivity of pre-treated aPL on IIa-8.0-biot-2x ELISA; parameters: species or system Human; settings: aPL pool sera preincubated 90 min at RT with 1, 10 and 10011 g/ml peptide
Method: To examine the functional ability of IIa-5.0, IIa-7.1, IIa-8.0 peptides and R39-R43 to inhibit the activity of pool of aPL isolated from APS patients, the remaining reactivity of aPL was evaluated for IIa-8.0-biot-2x which had previously been treated with increasing concentration of peptides. […] The flag-type orientation prevents potential interactions with the plate or with itself, particularly in solution. Streptavidin magnetic beads associated with IIa-5.0-biot-2x, IIa-7.1-biot-2x and Ha-8.0-biot-2x peptides have been generated. aPL was treated with increasing concentrations of beads before to measure the remaining binding activity of aPL on IIa-8.0-biot-2x ELISA (FIG. 7C).
To assess the ability of IIa-5.0-2x, IIa-7.1-2x and IIa-8.0-2x to inhibit in vitro the binding of aPL to IIa-8.0-biot-2x. aPL pool sera were preincubated for 90 min at RT with increasing concentrations (1, 10 and 10011 g/ml) of monomeric, dimeric IIa-5.0, IIa-7.1 and IIa-8.0 peptides and of IIa-5.0-biot-2x, IIa-7.1-biot-2x and IIa-8.0-biot-2x-associated beads (15, 30 and 60 pmol). 120 pmol correspond to the amount of IIa-8.0-biot-2x coated in well of Streptavidin Coated High Capacity Plates 96 well plates (Thermofisher). After the pre-incubation time, the serum was added anti-b2GP1 IgG (anti-IIa-8.0-2x) ELISA according to the protocol.

[2] = system: aPL (pool from APS patients); experiment: Determination of aPL by ELISA on coated peptides / biotinylated peptides (custom immunoassay); assay type: binding, Human; settings: for increase fold mean of aPL interaction relative to β2GP1: ELISA, 1/10 dilution of aPL pool, reference reduced β2GP1 (FIG. 1A)
Method: Determination of aPL by ELISA—MaxiSorp™ 96 well plates (Nunc) or Streptavidin plate (Thermofisher) were coated with 10 μg/ml recombinant domains of β2GP1, peptides or biotinylated-peptide prior to incubation with aPLA. Secondary anti-human antibodies conjugated to IR800CW (Rockland) or HRP were used. Protein- or peptide-bound antibodies were detected and quantified by the Odyssey system (Li-Cor Biosciences) or absorbance in optical densities (OD) was determined at 405 nm (molecular Devices™ Filtermax).
(§1) The de Groot's research group has pointed at the importance of hydrophobic character of the plate during coating of R39-R43 epitope. In order to abrogate of the plate-dependent aPL binding, the Ia-1 and Ib-1 peptides as well as the R39-R43 with a biotin at their N-terminal were synthetized and coated a streptavidin plate. In this configuration, the different peptides are flag oriented in the space preventing any interaction with the plate. It was thus observed that the flag-type orientation of R39-R43-biot leads to 8.52×more interaction with aPL while they show 9.63×more binding for Ib-1-biot presenting the same position. […] The surface plasmon resonance (SPR) technique is used to determine the relative avidity of aPL for R39-R43-biot and Ib-1-biot. The interaction between aPL and immobilized R39-R43-biot or Ib-1-biot is monitored by flowing various concentrations of aPL over a R39-R43-biot- or Ib-1-biot-coated chip surface (FIG. 1C). Through SPR experiments, it appears that aPL avidity for Ib-1-biot presents a resonance unit (RU) of 51.49 at 1/1,000 of dilution and a RU of 27.61 at 1/10,000 of dilution while, at the same dilution, it present a RU of 27.36 and a RU of 17.99 with R39-R43-biot, respectively (FIG. 1C). However, at higher concentrations, the peptides seems to show no differences in the interactions with aPL. […] Considering that IgG valency, it was decided to generate a dimeric Ib-1-biot peptide (Ib-1-biot-2x). This new polypeptide carries thus two optimized epitopes which have the opportunity to interact with two Fab fragment present on aPL. […] At higher concentration, i.e dilution of 1/100, the avidity for dimeric peptide is 28×more than for the monomeric (FIG. 1D).
It was performed a peptide substitution scan of Ib-1-biot VSRGGMRKKKKPLTG (SEQ ID NO: 6) carrying the optimized epitope Ib-1-biot and based on an exchange of the underlined amino acid positions with the 20 main amino acids. The resulting peptide microarrays contained 140 different peptides. It was observed that the peptide substitution of the position n° 1, 2, 12 and 15 have significant influences on the ability to interact with aPL from patients 1, 2, 3, 4 and, in particular, form the plasma pool. Indeed, the substitution of the position 1, 12 or 15 by an Arginine (R) or a Lysine (K) increases the avidity of the peptide for all aPL from patients. […] In this context, the enhancement relative to Ib-1.0-biot-2x of identified peptides was evaluated (FIG. 2A). […] However, streptavidin being known to produce unspecific binding, it was used the ratio between aPL and a pool of human plasma as control (B/B0) (FIG. 2B, upper panel). This representation therefore allows to distinguish the real levels of interactions. It was then performed a dilution assay from dilution of 1/100 to 1/1,200,000 and it was observed relevant differences between the different identified peptides. By comparison of area under the curve (AUC), it was possible to detect the most prone-interacting peptide with aPL. Thus, the peptide IIa-8.0-biot-2x obtained the higher AUC (FIG. 2B, bottom panel). To formally quantify the ability of aPL to interact with IIa-8.0-biot-2x, it was monitored by flowing various concentrations of aPL over a IIa-8.0-biot-2x-coated chip surface (FIG. 2C). […] In FIG. 2C, bottom panel, it can be appreciated more precisely the improvement of the quality of interactions. […]

[3] = system: aPL from a pool of 13 Human patients; experiment: Surface plasmon resonance, aPL flown over biotin-peptide-coated SA chip (BIAcore X100); assay type: binding; settings: for sustained interaction / stability of binding with aPL (shape of SPR curves): stabilization curves
Method: The kinetics and affinity of protein-protein and protein-lipid interactions were determined using a BIAcore X100 instrument. 1 mg/ml of biotin-tagged peptide (ligand) was immobilized using a sensor chip SA (GE Healthcare) surface, whereas aPL from a pool of 13 Human patients were flown as analyte. The first flow cell of the sensor chip was used as a control surface (no protein), whereas the second flow cell was employed as the active surface. A range of dilution of aPL analytes prepared in the same buffer was injected on both flow cell surfaces at a flow rate of 30 μl/min. Association and dissociation times for each protein injection were set at 90 and 120 s, respectively. In all cases, sensorgrams were obtained from three different dilutions of aPL.
as §1
It was performed a peptide substitution scan of Ib-1-biot VSRGGMRKKKKPLTG (SEQ ID NO: 6) carrying the optimized epitope Ib-1-biot and based on an exchange of the underlined amino acid positions with the 20 main amino acids. The resulting peptide microarrays contained 140 different peptides. It was observed that the peptide substitution of the position n° 1, 2, 12 and 15 have significant influences on the ability to interact with aPL from patients 1, 2, 3, 4 and, in particular, form the plasma pool. Indeed, the substitution of the position 1, 12 or 15 by an Arginine (R) or a Lysine (K) increases the avidity of the peptide for all aPL from patients. […] In this context, the enhancement relative to Ib-1.0-biot-2x of identified peptides was evaluated (FIG. 2A). […] However, streptavidin being known to produce unspecific binding, it was used the ratio between aPL and a pool of human plasma as control (B/B0) (FIG. 2B, upper panel). This representation therefore allows to distinguish the real levels of interactions. It was then performed a dilution assay from dilution of 1/100 to 1/1,200,000 and it was observed relevant differences between the different identified peptides. By comparison of area under the curve (AUC), it was possible to detect the most prone-interacting peptide with aPL. Thus, the peptide IIa-8.0-biot-2x obtained the higher AUC (FIG. 2B, bottom panel). […]

[4] = after a dilution of 100× of aPL (1/1,000) (FIG. 1B)
[5] = streptavidin plate, N-terminal biotin, 1/10 dilution of aPL pool (FIG. 1B)
[6] = aPL at 1/1,000 of dilution (FIG. 1C)
[7] = aPL at 1/10,000 of dilution (FIG. 1C)

VSRGGMRKRKKKKTG [IIa-7.1] was tested, and the “inhibition of aPL binding to IIa-8.0-biot-2x ELISA by peptide in solution” value (from here on “inhibition of aPL binding”) [1] was “prevents their further binding to IIa-8.0-biot-2x ELISA”.

With “R39-R43-biot: R39-R43 peptide with a biotin at its N-terminal (Biotin-VSRGGMRKFICPLTG) [reference compound]” the “interaction with aPL of flag-oriented biotinylated peptide versus nude peptide” value [2, 4] was 2.83 ×, the “interaction with aPL of flag-oriented biotinylated peptide versus nude peptide” value [2, 5] was 8.52 × and the “resonance unit (RU), aPL avidity” value [3, 6] was 27.36 RU. For the same molecule, the “resonance unit (RU), aPL avidity” value [3, 7] was 17.99 RU and the “sustained interaction / stability of binding with aPL (shape of SPR curves)” value [3] was “neither R39-R43-biot nor Ib-1-biot have sustained interaction with aPL”.

For “Ib-1-biot: monomeric Ib-1 peptide with a biotin at its N-terminal (Biotin-VSRGGMRKKKKPLTG)”, the “interaction with aPL of flag-oriented biotinylated peptide versus nude peptide” value [2, 4] was 4.3 ×, the “interaction with aPL of flag-oriented biotinylated peptide versus nude peptide” value [2, 5] was 9.63 × and the “resonance unit (RU), aPL avidity” value [3, 6] was 51.49 RU. For the same molecule, the “resonance unit (RU), aPL avidity” value [3, 7] was 27.61 RU and the “sustained interaction / stability of binding with aPL (shape of SPR curves)” value [3] was “neither R39-R43-biot nor Ib-1-biot have sustained interaction with aPL”.

For “VSRGGMRKKKKPLTG [Ib-1, corresponding to the second substitution scan]”, the “increase fold mean of aPL interaction relative to β2GP1” value [2] was 5.5 fold.

“VSRGGMRKFIKPLTG [Ia-1, corresponding to the first substitution scan]” was tested, and the “increase fold mean of aPL interaction relative to β2GP1” value [2] was 3.47 fold.

In the case of “VSRGGMRKFICPLTG [R39-R43, reference compound]”, the “increase fold mean of aPL interaction relative to β2GP1” value [2] is reported as “same ability to interact with aPL than β2GP1” and the “inhibition of aPL binding” value [1] is reported as “failed to significantly inhibit”.

With VSRGGMRKRKKPLTK [IIa-5.0] the “inhibition of aPL binding” value [1] was “prevents their further binding to IIa-8.0-biot-2x ELISA”.

RSRGGMRKRKKPLTG [IIa-8.0] was tested, and the “inhibition of aPL binding” value [1] was “prevents their further binding to IIa-8.0-biot-2x ELISA”.

B1: Dom MI: recombinant Domain I-II of β2GP1 (protein)
chain: GRTCPKPDDLPFSTVVPLKTFYEPGEEITYSCKPGYVSRGGMRKFICPLTGLWPINTLKCTPRVCPFAGILENGAVRYTTFEYPNTISFSCNTGFYLNGADSAKCTEEGKWSPELPVCAP
In the case of B1, the “increase fold mean of aPL interaction relative to β2GP1” value [2] is reported as “same ability to interact with aPL than β2GP1”.
